Key:
Experiment in all cases: cells
Assay type in all cases: functional, cell-based
Conditions in all cases: Homo sapiens
CaR-1 = tested on: CaR-1;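 also: growth inhibition of human CaR-1 cancer cells, read out with a cell viability assay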
Description: SANGER: Inhibition of human CaR-1 cell growth in a cell viability assay.

DOK = tested on: DOK;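 also: cell viability assay read-out, values reflect inhibition of cell growth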
Description: SANGER: Inhibition of human DOK cell growth in a cell viability assay.

DV-90 = tested on: DV-90;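 also: Read-out is a viability assay, with IC50 reflecting the drop in DV-90 cell growth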
Description: SANGER: Inhibition of human DV-90 cell growth in a cell viability assay.

ECC4 = tested on: ECC4;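 also: growth inhibition of ECC4 cells, read out with a cell viability assay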
Description: SANGER: Inhibition of human ECC4 cell growth in a cell viability assay.

GAMG = tested on: GAMG;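 also: cell growth inhibition measured by a viability assay in the GAMG human cell line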
Description: SANGER: Inhibition of human GAMG cell growth in a cell viability assay.

GDM-1 = tested on: GDM-1;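 also: cell viability readout used to measure growth inhibition of human GDM-1 cells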
Description: SANGER: Inhibition of human GDM-1 cell growth in a cell viability assay.

HCC1569 = tested on: HCC1569;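 also: growth inhibition of human HCC1569 cells, read out with a cell viability assay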
Description: SANGER: Inhibition of human HCC1569 cell growth in a cell viability assay.

HN = tested on: HN
Description: SANGER: Inhibition of human HN cell growth in a cell viability assay.

HT-1376 = tested on: HT-1376
Description: SANGER: Inhibition of human HT-1376 cell growth in a cell viability assay.

HT55 = tested on: HT55;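 also: cell viability readout measuring growth inhibition of human HT55 cells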
Description: SANGER: Inhibition of human HT55 cell growth in a cell viability assay.

HTC-C3 = tested on: HTC-C3;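 also: inhibition of cell growth, read out with a cell viability assay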
Description: SANGER: Inhibition of human HTC-C3 cell growth in a cell viability assay.

Hs-578T = tested on: Hs-578T
Description: SANGER: Inhibition of human Hs-578-T cell growth in a cell viability assay.

HuP-T3 = tested on: HuP-T3;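 also: HuP-T3 cell growth inhibition, read out with a cell viability assay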
Description: SANGER: Inhibition of human HuP-T3 cell growth in a cell viability assay.

KP-4 = tested on: KP-4;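 also: human KP-4 cells, with growth inhibition read out through a cell viability assay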
Description: SANGER: Inhibition of human KP-4 cell growth in a cell viability assay.

KYSE-450 = tested on: KYSE-450;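 also: cell growth inhibition measured by a viability assay in human KYSE-450 cells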
Description: SANGER: Inhibition of human KYSE-450 cell growth in a cell viability assay.

LB647-SCLC = tested on: LB647-SCLC;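 also: cell growth inhibition, read out by a viability assay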
Description: SANGER: Inhibition of human LB647-SCLC cell growth in a cell viability assay.

LB996-RCC = tested on: LB996-RCC
Description: SANGER: Inhibition of human LB996-RCC cell growth in a cell viability assay.

LC-1F = tested on: LC-1F;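 also: growth inhibition of human LC-1F cells, read out with a cell viability assay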
Description: SANGER: Inhibition of human LC-1F cell growth in a cell viability assay.

M059J = tested on: M059J;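 also: growth inhibition of M059J cells, read out with a cell viability assay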
Description: SANGER: Inhibition of human M059J cell growth in a cell viability assay.

MDA-MB-175-VII = tested on: MDA-MB-175-VII
MG-63 = tested on: MG-63;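 also: growth inhibition of human MG-63 cells, read out with a cell viability assay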
Description: SANGER: Inhibition of human MG-63 cell growth in a cell viability assay.

NALM-6 = tested on: NALM-6;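 also: growth inhibition of NALM-6 cells, read out with a cell viability assay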
Description: SANGER: Inhibition of human NALM-6 cell growth in a cell viability assay.

NCI-H1417 = tested on: NCI-H1417;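 also: human NCI-H1417 cells, growth inhibition determined with a cell viability readout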
Description: SANGER: Inhibition of human NCI-H1417 cell growth in a cell viability assay.

NCI-H1618 = tested on: NCI-H1618;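 also: growth inhibition of human NCI-H1618 cells, measured by a cell viability assay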
Description: SANGER: Inhibition of human NCI-H1618 cell growth in a cell viability assay.

NCI-H1703 = tested on: NCI-H1703;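 also: growth inhibition of NCI-H1703 cells, read out via a cell viability assay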
Description: SANGER: Inhibition of human NCI-H1703 cell growth in a cell viability assay.

NCI-H1882 = tested on: NCI-H1882;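 also: growth inhibition of the cell line, determined with a viability assay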
Description: SANGER: Inhibition of human NCI-H1882 cell growth in a cell viability assay.

NCI-H2087 = tested on: NCI-H2087;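 also: growth inhibition determined with a cell viability readout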
Description: SANGER: Inhibition of human NCI-H2087 cell growth in a cell viability assay.

NCI-H2347 = tested on: NCI-H2347;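 also: growth inhibition of the cell line, read out with a cell viability assay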
Description: SANGER: Inhibition of human NCI-H2347 cell growth in a cell viability assay.

NCI-H2452 = tested on: NCI-H2452;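 also: growth inhibition of NCI-H2452 cells, read out with a cell viability assay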
Description: SANGER: Inhibition of human NCI-H2452 cell growth in a cell viability assay.

NCI-H322M = tested on: NCI-H322M;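 also: cell viability assay measuring inhibition of growth of human NCI-H322M cells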
Description: SANGER: Inhibition of human NCI-H322M cell growth in a cell viability assay.

NCI-H460 = tested on: NCI-H460;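 also: cell viability assay scoring growth inhibition of human NCI-H460 cells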
Description: SANGER: Inhibition of human NCI-H460 cell growth in a cell viability assay.

NCI-H64 = tested on: NCI-H64;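 also: growth inhibition of NCI-H64 cells, read out with a cell viability assay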
Description: SANGER: Inhibition of human NCI-H64 cell growth in a cell viability assay.

NY = tested on: NY
Description: SANGER: Inhibition of human NY cell growth in a cell viability assay.

OE19 = tested on: OE19;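 also: growth inhibition of OE19 cells, measured through a cell viability read-out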
Description: SANGER: Inhibition of human OE19 cell growth in a cell viability assay.

Panc1005 = tested on: Panc1005;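 also: growth inhibition of human PANC-10-05 cells, measured by a cell viability assay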
Description: SANGER: Inhibition of human PANC-10-05 cell growth in a cell viability assay.

PC-3 = tested on: PC-3;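 also: cell viability assay measuring growth inhibition of PC-3 cells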
Description: SANGER: Inhibition of human PC-3 cell growth in a cell viability assay.

PFSK-1 = tested on: PFSK-1;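 also: cell viability assay measuring how strongly compounds suppress growth of human PFSK-1 cells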
Description: SANGER: Inhibition of human PFSK-1 cell growth in a cell viability assay.

RERF-LC-MS = tested on: RERF-LC-MS;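 also: growth inhibition of human RERF-LC-MS cells, read out by a cell viability assay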
Description: SANGER: Inhibition of human RERF-LC-MS cell growth in a cell viability assay.

SCC-3 = tested on: SCC-3;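 also: cell viability assay measuring inhibition of SCC-3 cell growth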
Description: SANGER: Inhibition of human SCC-3 cell growth in a cell viability assay.

SIG-M5 = tested on: SIG-M5;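 also: cell viability assay read-out, measuring how strongly growth of cultured human SIG-M5 cells is inhibited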
Description: SANGER: Inhibition of human SIG-M5 cell growth in a cell viability assay.

SK-MEL-30 = tested on: SK-MEL-30;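 also: growth inhibition of SK-MEL-30 cells, determined with a cell viability assay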
Description: SANGER: Inhibition of human SK-MEL-30 cell growth in a cell viability assay.

SK-N-AS = tested on: SK-N-AS;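 also: growth inhibition of human SK-N-AS cells, measured with a cell viability assay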
Description: SANGER: Inhibition of human SK-N-AS cell growth in a cell viability assay.

SK-OV-3 = tested on: SK-OV-3;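 also: growth inhibition of SK-OV-3 human cells, read out with a cell viability assay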
Description: SANGER: Inhibition of human SK-OV-3 cell growth in a cell viability assay.

SKG-IIIa = tested on: SKG-IIIa;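 also: cell growth inhibition, read out with a cell viability assay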
Description: SANGER: Inhibition of human SKG-IIIa cell growth in a cell viability assay.

SNU-449 = tested on: SNU-449
Description: SANGER: Inhibition of human SNU-449 cell growth in a cell viability assay.

SW1417 = tested on: SW1417;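 also: growth inhibition of human SW1417 cells, read out with a cell viability assay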
Description: SANGER: Inhibition of human SW1417 cell growth in a cell viability assay.

TALL-1 = tested on: TALL-1;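 also: growth inhibition of cultured human TALL-1 cells, read out by a cell viability assay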
Description: SANGER: Inhibition of human TALL-1 cell growth in a cell viability assay.

769-P = tested on: 769-P
Description: SANGER: Inhibition of human 769-P cell growth in a cell viability assay.

A 172 = tested on: A 172;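 also: growth inhibition of A172 cells, measured with a cell viability readout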
Description: SANGER: Inhibition of human A172 cell growth in a cell viability assay.

AGS = tested on: AGS;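 also: growth inhibition of AGS cells, determined with a cell viability assay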
Description: SANGER: Inhibition of human AGS cell growth in a cell viability assay.

AN3-CA = tested on: AN3-CA;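 also: growth inhibition of human AN3-CA cells measured by a cell viability assay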
Description: SANGER: Inhibition of human AN3-CA cell growth in a cell viability assay.

BC-3 = tested on: BC-3;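 also: cell viability assay measuring growth inhibition of human BC-3 cells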
Description: SANGER: Inhibition of human BC-3 cell growth in a cell viability assay.

BL-41 = tested on: BL-41;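 also: growth inhibition of human BL-41 cells, read out with a cell viability assay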
Description: SANGER: Inhibition of human BL-41 cell growth in a cell viability assay.

C3A = tested on: C3A;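 also: growth inhibition of C3A human cells, quantified with a cell viability readout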
Description: SANGER: Inhibition of human C3A cell growth in a cell viability assay.

CAKI-1 = tested on: CAKI-1;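 also: growth inhibition of CAKI-1 cells, measured by a cell viability assay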
Description: SANGER: Inhibition of human CAKI-1 cell growth in a cell viability assay.

CAL-33 = tested on: CAL-33;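 also: growth inhibition of CAL-33 cells, read out with a cell viability assay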
Description: SANGER: Inhibition of human CAL-33 cell growth in a cell viability assay.

CAL-62 = tested on: CAL-62;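 also: growth inhibition of CAL-62 cells, read out with a cell viability assay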
Description: SANGER: Inhibition of human CAL-62 cell growth in a cell viability assay.

CAL-85-1 = tested on: CAL-85-1
Description: SANGER: Inhibition of human CAL-85-1 cell growth in a cell viability assay.

THP-1 = tested on: THP-1
Description: SANGER: Inhibition of human THP-1 cell growth in a cell viability assay.

WM-115 = tested on: WM-115
Description: SANGER: Inhibition of human WM-115 cell growth in a cell viability assay.

Structure (SMILES): N#C/C(=C1/Nc2ccccc2S1)c1ccnc(NCCc2cccnc2)n1
- IC50 (CaR-1): > 8 µM
- IC50 (DOK): > 8 µM
- IC50 (DV-90): > 8 µM
- IC50 (ECC4): > 8 µM
- IC50 (GAMG): > 8 µM
- IC50 (GDM-1): > 8 µM
- IC50 (HCC1569): 1.96 µM
- IC50 (HN): > 8 µM
- IC50 (HT-1376): 7.32 µM
- IC50 (HT55): > 8 µM
- IC50 (HTC-C3): 6.52 µM
- IC50 (Hs-578T): > 8 µM
- IC50 (HuP-T3): > 8 µM
- IC50 (KP-4): 6.43 µM
- IC50 (KYSE-450): 1.14 µM
- IC50 (LB647-SCLC): > 8 µM
- IC50 (LB996-RCC): 2.86 µM
- IC50 (LC-1F): > 8 µM
- IC50 (M059J): > 8 µM
- IC50 (MDA-MB-175-VII): > 8 µM
- IC50 (MG-63): 3.29 µM
- IC50 (NALM-6): 4.49 µM
- IC50 (NCI-H1417): > 8 µM
- IC50 (NCI-H1618): > 8 µM
- IC50 (NCI-H1703): > 8 µM
- IC50 (NCI-H1882): > 8 µM
- IC50 (NCI-H2087): > 8 µM
- IC50 (NCI-H2347): > 8 µM
- IC50 (NCI-H2452): > 8 µM
- IC50 (NCI-H322M): > 8 µM
- IC50 (NCI-H460): > 8 µM
- IC50 (NCI-H64): > 8 µM
- IC50 (NY): 2.76 µM
- IC50 (OE19): 2.92 µM
- IC50 (Panc1005): > 8 µM
- IC50 (PC-3): > 8 µM
- IC50 (PFSK-1): > 8 µM
- IC50 (RERF-LC-MS): > 8 µM
- IC50 (SCC-3): > 8 µM
- IC50 (SIG-M5): > 8 µM
- IC50 (SK-MEL-30): > 8 µM
- IC50 (SK-N-AS): > 8 µM
- IC50 (SK-OV-3): > 8 µM
- IC50 (SKG-IIIa): > 8 µM
- IC50 (SNU-449): 4.87 µM
- IC50 (SW1417): > 8 µM
- IC50 (TALL-1): > 8 µM
- IC50 (769-P): > 8 µM
- IC50 (A 172): 2.16 µM
- IC50 (AGS): > 8 µM
- IC50 (AN3-CA): 2.59 µM
- IC50 (BC-3): 7.46 µM
- IC50 (BL-41): 7.64 µM
- IC50 (C3A): 2.81 µM
- IC50 (CAKI-1): 6.48 µM
- IC50 (CAL-33): > 8 µM
- IC50 (CAL-62): 5.89 µM
- IC50 (CAL-85-1): 1.5 µM
- IC50 (THP-1): 5.33 µM
- IC50 (WM-115): > 8 µM

Structure (SMILES): C/C(O)=C(\C#N)C(=O)Nc1cc(Br)ccc1Br
- IC50 (CaR-1): > 16 µM
- IC50 (DOK): > 16 µM
- IC50 (DV-90): > 16 µM
- IC50 (ECC4): > 16 µM
- IC50 (GAMG): > 16 µM
- IC50 (GDM-1): > 16 µM
- IC50 (HCC1569): > 16 µM
- IC50 (HN): > 16 µM
- IC50 (HT-1376): > 16 µM
- IC50 (HT55): > 16 µM
- IC50 (HTC-C3): > 16 µM
- IC50 (Hs-578T): > 16 µM
- IC50 (HuP-T3): > 16 µM
- IC50 (KP-4): > 16 µM
- IC50 (KYSE-450): > 16 µM
- IC50 (LB647-SCLC): > 16 µM
- IC50 (LB996-RCC): > 16 µM
- IC50 (LC-1F): > 16 µM
- IC50 (M059J): > 16 µM
- IC50 (MDA-MB-175-VII): > 16 µM
- IC50 (MG-63): > 16 µM
- IC50 (NALM-6): > 16 µM
- IC50 (NCI-H1417): > 16 µM
- IC50 (NCI-H1618): > 16 µM
- IC50 (NCI-H1703): > 16 µM
- IC50 (NCI-H1882): > 16 µM
- IC50 (NCI-H2087): > 16 µM
- IC50 (NCI-H2347): > 16 µM
- IC50 (NCI-H2452): > 16 µM
- IC50 (NCI-H322M): > 16 µM
- IC50 (NCI-H460): > 16 µM
- IC50 (NCI-H64): > 16 µM
- IC50 (NY): > 16 µM
- IC50 (OE19): > 16 µM
- IC50 (Panc1005): > 16 µM
- IC50 (PC-3): > 16 µM
- IC50 (PFSK-1): > 16 µM
- IC50 (RERF-LC-MS): > 16 µM
- IC50 (SCC-3): > 16 µM
- IC50 (SIG-M5): > 16 µM
- IC50 (SK-MEL-30): > 16 µM
- IC50 (SK-N-AS): > 16 µM
- IC50 (SK-OV-3): > 16 µM
- IC50 (SKG-IIIa): > 16 µM
- IC50 (SNU-449): > 16 µM
- IC50 (SW1417): > 16 µM
- IC50 (TALL-1): > 16 µM
- IC50 (769-P): > 16 µM
- IC50 (A 172): > 16 µM
- IC50 (AGS): > 16 µM
- IC50 (AN3-CA): > 16 µM
- IC50 (BC-3): > 16 µM
- IC50 (BL-41): > 16 µM
- IC50 (C3A): > 16 µM
- IC50 (CAKI-1): > 16 µM
- IC50 (CAL-33): > 16 µM
- IC50 (CAL-62): > 16 µM
- IC50 (CAL-85-1): > 16 µM
- IC50 (THP-1): > 16 µM
- IC50 (WM-115): > 16 µM
